Assay results published in patent publication US8889620B2, “Pharmaceutical compositions comprising peptide antagonists of vascular endothelial growth factor” (Children's Medical Center Corporation, priority 1997, dated 2014).
“Also recorded” adds a separate entry of the source. Where no end group is shown, it is not given here.

Assays:
[1] = system: VEGF165-induced proliferation of HUVEC; experiment: Inhibition of VEGF165-stimulated HUVEC proliferation; format: cell-based, human
Protocol: FIG. 6. GST-Ex 7+8 fusion protein inhibits VEGF165-stimulated HUVEC proliferation. HUVEC were cultured in 96-well dishes (5,000 cell/well) as in FIG. 2. Increasing concentrations of VEGF165 (open circles), together with 15 ug/ml GST-Ex 7+8 (closed circles) or 25 ug/ml GST (squares), were added to the medium, and the cells were incubated for 4 more days. DNA synthesis was measured in HUVEC as described in FIG. 2. The results represent the average counts of three wells, and the standard deviations were determined.
(§1) FIG. 7. GST-Ex 7+8 fusion protein inhibits VEGF165 and VEGF121-stimulated HUVEC proliferation. Increasing concentration of VEGF165 (circles) or VEGF121 (square) with 15 ug/ml GST-Ex 7+8 (closed symbols) or without GST-Ex 7+8 (open symbols) were added to HUVEC, and [*H]thymidine incorporation into the DNA was measured as in FIG. 2. The results represent the average counts of three wells and the standard deviations were determined.
(§2) HUVEC were seeded in gelatin-coated 96-well dishes at 4,000 cells/200 Ul/well in M-199 containing 5% FCS and GPS. After 24 H, VEGF isoforms and VEGF exon 7-GST fusion proteins were added to the wells at the same time. The cells were incubated for 72 h, and [3H]thymidine (1 pC/ml) was added for 10-12 h. The medium was aspirated, and the cells were trypsinized and harvested by an automatic cell harvester (TOMTEC) and loaded onto Filtermats (Wallac). The Filtermats were scanned and cpm were determined by a MicroBeta counter (Wallac). The results represent the average of samples assayed in triplicate, and the standard derivations were determined. All experiments were repeated at least three times and similar results were obtained.

KDR/Flk-1 [2] = experiment: Cross-linking of 125I-VEGF165 to KDR/Flk-1 on HUVEC; format: binding, human; settings: 15 ug/ml fusion protein, FIG. 4
Protocol: (§3) FIG. 4. GST-EX 7+8 fusion protein inhibits cross-linking of ^125I-VEGF165 to ^125I-VEGF165R and to KDR/Flk-1. ^125I-VEGF165 (5 ng/ml) was bound to subconfluent cultures of HUVEC (lanes 1 and 2) and MDA-MB-23 1 cells (lanes 3 and 4) in 6-cm dishes. The binding was carried out in the presence (lanes 2 and 4) or the absence (lanes 1 and 3) of 15 ug/ml GST-Ex 7+8. Heparin (1 ug/ml) was added to each dish. At the end of a 2-h incubation, ^125I-VEGF165 was chemically cross-linked to the cell surface. The cells were lysed, and proteins were resolved by 6% SDS-PAGE. The gel was dried and exposed to x-ray film.
(§4) Binding and cross-linking experiments using 125I-VEGF165 and 125I-VEGF121 were performed at described previously (Gitay-Goren, et al., J. Biol. Chem., 287, 6003-6096 (1992), Soker, et al., J: Biol. Chem., 271,5761-5767 (1996)). VEGF binding was quantified by measuring the cell-associated radioactivity in a y-counter (Beckman, Gamma 5500). The counts represent the average of three walls. All experiments were repeated at least three times, and similar results were obtained. 125I-VEGF cross-linked complexes were resolved by 6% SDS-PAGE, and the gels were exposed to a phosphor screen and scanned after 24 h by a PhosphorImager (Molecular Dynamics). Subsequently, the gels were exposed to x-ray film.

KDR/Flk-1 [3] = biological target: T1, KDR/Flk-1 (Homo sapiens, UniProt P35968); experiment: Direct binding/cross-linking of 125I-GST-Ex 7 to HUVEC: KDR/Flk-1; set-up: HUVEC, which express both KDR/Flk-1 and VEGF165R; endogenous in cells; host or cells: HUVEC (ATCC); settings: cross-linking, 1 ug/ml heparin, FIG. 1 lane 3
Protocol: FIG. 1. Cross-linking of 1 ^125I-VEGF165, ^125I-VEGF121 and ^125I-GST-EX 7 to HUVEC. ^125I-VEGF165 (5 ng/ml) (lane 1) or ^125I-VEGF121 (10 ng/ml) (lane 2) or ^125I-GST-EX 7 (50 nglml) (lane 3) were bound to subconfluent cultures of HUVEC in 6-cm dishes. The binding was carried out in the presence of 1 ug/ml heparin. At the end of a 2-H incubation, each ^125I-VEGF isoform was chemically cross-linked to the cell surface. The cells were lysed and proteins were resolved by 6% SDS-PAGE. The polyacrylamide gel was dried and exposed to x-ray film.
as §4

KDR/Flk-1 [4] = biological target: T1, KDR/Flk-1; experiment: Cross-linking of 125I-VEGF165 to KDR/Flk-1 on PAE-KDR cells; format: binding, porcine endothelial cells transfected to express KDR/Flk-1; set-up: expressed in transfected cells; host or cells: porcine endothelial cells (PAE), gift of Dr. Claesson-Welsh; settings: data not shown
Protocol: as §4

VEGF165R [5] = biological target: T2, VEGF165R (Homo sapiens, UniProt O14786); experiment: Cross-linking of 125I-VEGF165 to VEGF165R on HUVEC; format: binding; set-up: HUVEC, which express both KDR/Flk-1 and VEGF165R; endogenous in cells; host or cells: HUVEC (ATCC); settings: 15 ug/ml fusion protein, FIG. 4 lane 2
Protocol: as §3, §4

[6] = system: VEGF121-induced proliferation of HUVEC; experiment: Inhibition of VEGF121-stimulated HUVEC proliferation; format: cell-based, human
Protocol: as §1, §2

VEGF165R [7] = biological target: T2, VEGF165R; experiment: Cross-linking of 125I-VEGF165 to VEGF165R on 231 cells; format: binding; set-up: to 231 cells which express only VEGF165R; endogenous in cells; host or cells: MDA-MB-231 (ATCC); settings: 15 ug/ml fusion protein, FIG. 4 lane 4
Protocol: as §3, §4

T1 sequence (P35968 20-1356): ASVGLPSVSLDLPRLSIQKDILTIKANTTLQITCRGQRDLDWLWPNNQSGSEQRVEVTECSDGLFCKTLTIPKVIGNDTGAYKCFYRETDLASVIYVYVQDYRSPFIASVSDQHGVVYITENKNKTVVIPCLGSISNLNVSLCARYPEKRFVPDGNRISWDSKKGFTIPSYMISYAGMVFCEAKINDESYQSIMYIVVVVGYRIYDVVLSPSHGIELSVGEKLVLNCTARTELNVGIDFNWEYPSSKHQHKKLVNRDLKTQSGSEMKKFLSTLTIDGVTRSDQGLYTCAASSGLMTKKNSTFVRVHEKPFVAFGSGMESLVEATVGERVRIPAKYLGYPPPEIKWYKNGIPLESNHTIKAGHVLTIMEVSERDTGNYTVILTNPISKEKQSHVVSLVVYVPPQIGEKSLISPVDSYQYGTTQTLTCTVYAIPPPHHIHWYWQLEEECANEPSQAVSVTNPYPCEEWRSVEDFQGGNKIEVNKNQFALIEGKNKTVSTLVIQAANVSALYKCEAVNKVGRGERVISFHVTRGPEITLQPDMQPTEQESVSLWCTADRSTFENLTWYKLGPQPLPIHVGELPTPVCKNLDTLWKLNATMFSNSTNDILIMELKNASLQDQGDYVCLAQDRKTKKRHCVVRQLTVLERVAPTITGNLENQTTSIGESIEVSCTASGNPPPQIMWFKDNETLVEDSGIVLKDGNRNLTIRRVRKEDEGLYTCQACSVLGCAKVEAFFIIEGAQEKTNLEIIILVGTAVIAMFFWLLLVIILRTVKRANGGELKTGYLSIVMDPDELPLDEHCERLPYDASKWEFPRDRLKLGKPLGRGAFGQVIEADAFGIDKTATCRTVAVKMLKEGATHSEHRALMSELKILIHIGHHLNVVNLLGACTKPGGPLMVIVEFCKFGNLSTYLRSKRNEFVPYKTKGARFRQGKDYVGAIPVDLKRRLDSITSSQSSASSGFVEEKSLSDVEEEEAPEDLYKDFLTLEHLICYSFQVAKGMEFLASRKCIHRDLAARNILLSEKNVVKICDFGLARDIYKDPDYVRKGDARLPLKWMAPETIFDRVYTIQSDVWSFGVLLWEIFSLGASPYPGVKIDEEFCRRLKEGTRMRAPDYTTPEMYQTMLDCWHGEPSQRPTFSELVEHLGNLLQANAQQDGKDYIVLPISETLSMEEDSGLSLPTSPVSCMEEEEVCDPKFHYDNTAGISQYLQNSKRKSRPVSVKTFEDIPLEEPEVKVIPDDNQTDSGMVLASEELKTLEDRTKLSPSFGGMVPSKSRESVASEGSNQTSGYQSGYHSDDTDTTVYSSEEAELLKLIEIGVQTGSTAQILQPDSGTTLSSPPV
T2 sequence (O14786 22-923): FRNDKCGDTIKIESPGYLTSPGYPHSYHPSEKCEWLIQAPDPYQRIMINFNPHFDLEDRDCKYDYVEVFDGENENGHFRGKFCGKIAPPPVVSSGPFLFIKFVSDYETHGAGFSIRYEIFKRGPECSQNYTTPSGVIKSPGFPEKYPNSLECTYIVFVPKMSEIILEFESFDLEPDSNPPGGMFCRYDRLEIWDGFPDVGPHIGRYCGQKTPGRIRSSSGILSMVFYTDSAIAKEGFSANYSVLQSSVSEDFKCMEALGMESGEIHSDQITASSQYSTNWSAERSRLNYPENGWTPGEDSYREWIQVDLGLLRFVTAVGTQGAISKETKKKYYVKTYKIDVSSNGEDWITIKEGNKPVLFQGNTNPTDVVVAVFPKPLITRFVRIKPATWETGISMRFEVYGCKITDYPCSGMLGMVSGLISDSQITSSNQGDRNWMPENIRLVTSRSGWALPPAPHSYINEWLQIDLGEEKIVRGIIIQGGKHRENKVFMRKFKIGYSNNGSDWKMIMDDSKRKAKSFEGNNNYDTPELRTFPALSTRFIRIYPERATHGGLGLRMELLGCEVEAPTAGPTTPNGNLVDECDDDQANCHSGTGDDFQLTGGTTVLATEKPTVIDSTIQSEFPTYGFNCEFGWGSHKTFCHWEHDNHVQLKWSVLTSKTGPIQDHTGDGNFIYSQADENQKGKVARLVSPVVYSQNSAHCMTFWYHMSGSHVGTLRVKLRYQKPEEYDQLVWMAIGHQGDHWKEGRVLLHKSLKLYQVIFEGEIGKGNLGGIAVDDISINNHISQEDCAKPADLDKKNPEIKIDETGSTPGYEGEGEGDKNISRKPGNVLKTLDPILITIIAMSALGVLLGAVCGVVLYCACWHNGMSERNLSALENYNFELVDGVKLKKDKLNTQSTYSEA

- direct binding to KDR/Flk-1 on HUVEC (in words) (KDR/Flk-1 [3]): not and does not bind directly
- cross-linking of 125I-VEGF165 to KDR/Flk-1 on PAE-KDR cells (in words) (KDR/Flk-1 [4]): did not inhibit
- formation of 165-175-kDa 125I-VEGF165/VEGF165R cross-linked complexes on HUVEC (in words) (VEGF165R [5]): markedly inhibited
- formation of 125I-VEGF165/VEGF165R cross-linked complexes on 231 cells (in words) (VEGF165R [7]): markedly inhibited
Substance: GST-Ex 7+8: GST fusion protein containing the peptide encoded by VEGF165 exons 7 and 8 (PCGPCSERRKHLFVQDPQTCKCSCKNTDSRCKARQLELNERTCRCDKPRR; cysteine pairing not given here; also: GST fusion protein, side of fusion not given here)
- reduction of VEGF165-induced HUVEC proliferation ([1]; 15 ug/ml fusion protein added with VEGF165, FIG. 6): about 60%
- inhibition of the level of VEGF165-induced mitogenicity ([1]; FIG. 7, 15 ug/ml): about 2 fold
- binding/cross-linking of 125I-VEGF165 to KDR/Flk-1 on HUVEC (in words) (KDR/Flk-1 [2]): inhibits indirectly; also recorded: inhibited
- inhibition of the mitogenic activity of VEGF121 for HUVEC [6]: about 50%
- inhibition of VEGF125-mediated HUVEC proliferation ([6]; 15 ug/ml, FIG. 7): about 2 fold
